Assay results published in patent US20140088144A1, “INHIBITING MICROBIAL INFECTIONS” (THE UNIVERSITY OF KANSAS, priority 2012, published 2014).

What was measured:
LacI = biological target: T1, LacI (Escherichia coli, UniProt P03023); test: EMSA in vitro DNA binding by LacI; format: biochemical, E. coli; conditions: highest concentrations (dilutions starting at 650 μM)
T1 construct: made in house; host or cells: E. coli
Excerpt: All proteins for this study were expressed in E. coli. Untagged CRP was purified by Ni^2+-affinity chromatography as described. Lad protein was purified by ammonium sulfate precipitation and phosphocellulose column chromatography as described. RhaS-GB1^201b and GB1^b-RhaR were purified by Ni^2+-affinity chromatography. Briefly, plasmids derived from pET21 and expressing RhaS-GB1^201b and GB1^b-RhaR were transformed into competent cells of strains Acella™ (MoBiTec, Gottingen, Germany) or ArcticExpress(DE3) (Agilent Technologies, Santa Clara Calif.), respectively. The cells were grown in 1 liter TY plus ampicillin and rhamnose. Gentamycin was also added for GB1^b-RhaR. The cells were grown to OD600 of 0.5, transferred to a 15° C. shaker, 0.1 mM IPTG was added, and then incubated overnight. Cells were harvested by centrifugation and then resuspended in 30 mL of cold binding buffer (20 mM Tris, 500 mM NaCl, 5 mM imidazole, pH 7.9) plus L-rhamnose. […]
IRD700- and DY682-labeled oligos were from Eurofins MWG Operon. […] EMSA gels were imaged using an Odyssey infrared imager (LI-COR, Lincoln, Nebr.), and quantified using the Odyssey software, version 3.0.30. […] Inhibition values were calculated and graphs were drawn as for in vivo dose-response experiments.

virB = test: Shigella gene expression qRT-PCR, virB; format: cell-based, S. flexneri; conditions: for Average ΔΔCt / Ct / RQ (2^−ΔΔCt) / ΔΔCt^1 (normalized to gapA) / ΔΔCt^2 (normalized to rrsA): virB, example data
Protocol: Real-time quantitative reverse transcription PCR (qRT-PCR) was performed to test the effects of SE-1 on the expression of the VirF regulated genes virB, icsA, icsB and ipaB. The gapA and rrsA transcripts were used as internal controls. These are constitutively expressed Shigella genes commonly used to normalize mRNA levels. S. flexneri strain SME4331, which carries a null mutation in ipgD (ipgD), was grown at 30° C. overnight in TSB with ampicillin, diluted into the same medium to an OD600 of ˜0.1, and 1 ml aliquots further grown at 30° C. (DMSO only) or at 37° C. (SE-1 at 20 or 40 μM, or DMSO only, all 0.3% DMSO). Cells were grown to an OD600 of 1.0 (˜2.5 h) and RNA was isolated using an RNeasy MiniElute Cleanup Kit (Qiagen, Germantown, Md.), with DNA contamination eliminated using a Turbo DNase Kit (Ambion, Austin, Tex.). Complementary DNA (cDNA) was synthesized by random priming using a cDNA Reverse Transcription Kit (Applied Biosystems, Foster City, Calif.). Primers were tested for PCR specificity using genomic DNA template to ensure a single amplicon of the expected size for each primer pair, and validated using 5-fold dilutions of cDNA (2000 to 0.0256 ng) to ensure a linear plot of cycle threshold (Ct) versus cDNA concentration. Validated primer sets were used to test mRNA profiles in reactions that contained 10 ng of cDNA, 10 μl of SYBR green master mix (Applied Biosystems), specific primers (0.5 μM each) and water to a final volume of 20 μl, using a Step One Plus Real-Time PCR System (Applied Biosystems). The data was analyzed using the 2^−ΔΔCt method, and also by Applied Biosystems real-time analysis software. […] In brief, ΔΔCt values [ΔΔCt=(Ct,Target−Ct,Internal Control)SE-1−(Ct,Target−Ct,Internal Control)no SE-1] were separately obtained for each sample relative to two internal controls, gapA and rrsA. The ΔΔCt values relative to the two internal controls for each sample were averaged and then used to calculate the relative expression levels (2^−ΔΔCt). As a control, we also normalized each internal control to the other internal control. Control reactions used templates generated without reverse transcriptase to ensure low genomic DNA contamination. To ensure that products were not likely to be due to primer dimer artifacts, additional control samples were performed in which reaction mixtures contained primers alone (no template).

[1] = test system: human epithelial cells (HeLa); test: Alamar Blue [resazurin] metabolic activity of tissue culture cells used in invasion assays; format: cell-based
Excerpt: We expect that Compound 1 can impact host cell interaction but have little or no effect on growth rate of Shigella, based on our results with non-pathogenic E. coli strains.

T1 sequence (P03023 whole entry): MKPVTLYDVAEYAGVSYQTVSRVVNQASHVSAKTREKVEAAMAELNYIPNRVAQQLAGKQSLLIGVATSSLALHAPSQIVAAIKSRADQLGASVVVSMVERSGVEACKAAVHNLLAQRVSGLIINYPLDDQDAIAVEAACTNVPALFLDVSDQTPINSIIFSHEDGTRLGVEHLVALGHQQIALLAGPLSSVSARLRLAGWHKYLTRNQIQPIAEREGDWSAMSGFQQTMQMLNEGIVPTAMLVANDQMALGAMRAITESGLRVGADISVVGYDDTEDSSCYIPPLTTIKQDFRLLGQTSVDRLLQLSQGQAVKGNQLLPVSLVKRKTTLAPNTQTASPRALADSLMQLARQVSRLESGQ

## CCCCN1C=C(c2ccc3ccccc3n2)C(C[N+](=O)[O-])c2ccccc21 (stereo not shown) [Compound 1, 1-butyl-4-(nitromethyl)-3-quinolin-2-yl-4H-quinoline]
LacI
  LacI DNA binding retained: approximately 70%
virB; 40 μM SE-1, P<0.05
  maximal inhibition of virB expression: more than two fold
virB; SE-1 20 μM
  Average ΔΔCt: 1.13
  Ct: 23.26
  RQ (2^−ΔΔCt): 0.46
  ΔΔCt^1 (normalized to gapA): 0.63
  ΔΔCt^2 (normalized to rrsA): 1.63
virB; SE-1 40 μM
  Average ΔΔCt: 1.47
  Ct: 23.18
  RQ (2^−ΔΔCt): 0.36
  ΔΔCt^1 (normalized to gapA): 1.12
  ΔΔCt^2 (normalized to rrsA): 1.81
[1]
  metabolic activity of the tissue culture cells: did not have any effect
